Reference: patent publication US20140328809A1, “METHODS OF INDUCING CHONDROGENESIS IN MESENCHYMAL STEM CELLS USING SYNTHETIC TRITERPENOIDS” (TRUSTEES OF DARTMOUTH COLLEGE, priority 2011, published 2014)

What was measured:
TGF-β3 = test: Quantitative RT-PCR analysis on calvaria: TGF-β3; type: cell-based, mouse; settings: 7 days of culture, normalized to control = 1.00
Method: (§1) All chemicals were from Sigma-Aldrich. Primers for RT-PCR were from Applied Biosystems. The isolation of calvaria was essentially performed as described previously (Garrett, 2003; Garret et al., 2003). The calvaria were cultured in Biggers, Gwatkins, Judah medium supplemented with 1 mg/mL of bovine serum albumin (Cohn fraction V), 100 U/mL each of penicillin/streptomycin, and 0.292 mg/mL of glutaimine. On Day 1, the calvaria were treated with CDDO-Im or CDDO-EA. On Day 4, the medium was replaced with fresh medium, again containing either CDDO-Im or CDDO-EA. On Day 7, the calvaria were collected and either stored at −80° C. for further RNA analysis or fixed in 10% buffered formalin for 24 h and transferred to 80% ethanol for histological analysis.
(§2) After 7 days of culture, RNA was isolated from the calvaria and quantitative RT-PCR analysis was performed for more than 15 different markers including: SOX9 (a transcription factor specific for cartilage), collagen type II (alpha 1), all three isoforms of TGF-β, BMPs 2 and 4, BMP receptor II, Smads 3, 4, 6, and 7, tissue inhibitors of metalloproteinases (TIMP-1 and TIMP-2), and matrix metalloproteinase-9 (MMP-9). […] Both triterpenoids are strong inhibitors of the expression of MMP-9; CDDO-EA (200 nM), caused almost 80% inhibition of the expression of this metalloproteinase, which is known to be involved in the degradation of cartilage (Shinoda et al., 2008).

SOX-9 = test: Quantitative RT-PCR analysis on calvaria: SOX-9; type: cell-based, mouse; settings: 7 days of culture, normalized to control = 1.00
Method: as §1, §2

Smad7 = test: Quantitative RT-PCR analysis on calvaria: Smad7; type: cell-based, mouse; settings: 7 days of culture, normalized to control = 1.00
Method: as §1, §2

Aggrecan = test: Western blot of chondrocyte marker Aggrecan in bone marrow-derived MSCs; type: cell-based, human; settings: 100 nM for 7 days; MSCs in chondrogenic culture medium; not detectable in control
Method: (§3) Human bone marrow-derived stromal cells (ScienCell Research Laboratories), which contain a population of responsive mesenchymal stem cells, were grown in mesenchymal stem cell medium (ScienCell Research Laboratories). MSCs were serum-starved 24 hours prior to all experimental conditions. The synthesis of the synthetic triterpenoids, CDDO-Im and CDDO-EA, have been previously described (Sporn et al., 2011).
(§4) For directed chondrocytic differentiation, MSCs were grown in StemPro chondrogenic culture medium (Invitrogen) prepared by the technique of Kassem (2004), which is incorporated herein by reference. See also Medici et al. (2010), which is also incorporated herein by reference. CDDO-Im and CDDO-EA were added to the cultures at a concentration of 100 nM for 7 days. Western blot analysis was performed using the following antibodies at concentrations (and using protocols) recommended by the respective manufacturers: SOX9, COL2A1 (Santa Cruz Biotechnology), Aggrecan (Abcam), β-actin (Sigma-Aldrich). β-actin was used as a loading control. HRP-conjugated IgG TrueBlot reagents (eBioscience) were used at a dilution of 1:1000.

TGF-β2 = test: Quantitative RT-PCR analysis on calvaria: TGF-β2; type: cell-based, mouse; settings: 7 days of culture, normalized to control = 1.00
Method: as §1, §2

MMP-9 = test: Quantitative RT-PCR analysis on calvaria: MMP-9; type: cell-based, mouse; settings: for MMP-9 expression (quantitative RT-PCR): 7 days of culture, normalized to control = 1.00
Method: as §1, §2

Col II alpha1 = test: Quantitative RT-PCR analysis on calvaria: Col II alpha1; type: cell-based, mouse; settings: 7 days of culture, normalized to control = 1.00
Method: as §1, §2

TIMP-2 = test: Quantitative RT-PCR analysis on calvaria: TIMP-2; type: cell-based, mouse; settings: 7 days of culture, normalized to control = 1.00
Method: as §1, §2

Smad6 = test: Quantitative RT-PCR analysis on calvaria: Smad6; type: cell-based, mouse; settings: 7 days of culture, normalized to control = 1.00
Method: as §1, §2

Smad3 = test: Quantitative RT-PCR analysis on calvaria: Smad3; type: cell-based, mouse; settings: 7 days of culture, normalized to control = 1.00
Method: as §1, §2

newborn mouse calvaria = test: Histological analysis (toluidine blue) of chondrogenesis in newborn mouse calvarial organ cultures; type: cell-based; settings: 200 nM, 7 days, FIG. 1a, at least 3 sets of replicate experiments
Method: as §1
(§5) After fixation for 24 h, the calvaria were decalcified in EDTA, embedded in paraffin, and cut into 4 μm sections. The sections were stained either with modified hematoxylin and eosin or with toluidine blue (1% in 70% ethanol for 20 min, followed by destaining in 70%, 90%, and 100% ethanol for 15 seconds), placed in xylene twice, and then mounted (Garret, 2003). Procedures for immunofluroescence were performed essentially as previously described (Medici et al., 2010). […]

BMP-4 = test: Quantitative RT-PCR analysis on calvaria: BMP-4; type: cell-based, mouse; settings: 7 days of culture, normalized to control = 1.00
Method: as §1, §2

Smad4 = test: Quantitative RT-PCR analysis on calvaria: Smad4; type: cell-based, mouse; settings: 7 days of culture, normalized to control = 1.00
Method: as §1, §2

BMP-2 = test: Quantitative RT-PCR analysis on calvaria: BMP-2; type: cell-based, mouse; settings: 7 days of culture, normalized to control = 1.00
Method: as §1, §2

BMPRII = test: Quantitative RT-PCR analysis on calvaria: BMPRII; type: cell-based, mouse; settings: 7 days of culture, normalized to control = 1.00
Method: as §1, §2

[1] = tested on: collagen type II (COL2A1); test: Immunohistochemical analysis of collagen type II in calvaria; type: cell-based, mouse; settings: 200 nM, FIG. 1b
Method: as §1, §5

SOX9 = test: Western blot of chondrocyte marker SOX9 in bone marrow-derived MSCs; type: cell-based, human; settings: 100 nM for 7 days; MSCs in chondrogenic culture medium; not detectable in control
Method: as §3, §4

TGF-β1 = test: Quantitative RT-PCR analysis on calvaria: TGF-β1; type: cell-based, mouse; settings: 7 days of culture, normalized to control = 1.00
Method: as §1, §2

COL2A1 = test: Western blot of chondrocyte marker COL2A1 in bone marrow-derived MSCs; type: cell-based, human; settings: 100 nM for 7 days; MSCs in chondrogenic culture medium; not detectable in control
Method: as §3, §4

TIMP-1 = test: Quantitative RT-PCR analysis on calvaria: TIMP-1; type: cell-based, mouse; settings: 7 days of culture, normalized to control = 1.00
Method: as §1, §2

## CCNC(=O)[C@]12CCC(C)(C)C[C@H]1[C@H]1C(=O)C=C3[C@@]4(C)C=C(C#N)C(=O)C(C)(C)[C@@H]4CC[C@@]3(C)[C@]1(C)CC2 [CDDO-EA, CDDO-Ethyl amide]
TGF-β3; 50 nM
  TGF-β3 expression (quantitative RT-PCR): 1.39 ± 0.07
TGF-β3; 200 nM
  TGF-β3 expression (quantitative RT-PCR): 1.56 ± 0.13
TGF-β3; 500 nM
  TGF-β3 expression (quantitative RT-PCR): 1.44 ± 0.11
SOX-9; 50 nM
  SOX-9 expression (quantitative RT-PCR): 1.64 ± 0.17
SOX-9; 200 nM
  SOX-9 expression (quantitative RT-PCR): 2.62 ± 0.33
SOX-9; 500 nM
  SOX-9 expression (quantitative RT-PCR): 3.12 ± 0.38
Smad7; 50 nM
  Smad7 expression (quantitative RT-PCR): 1.28 ± 0.10
Smad7; 200 nM
  Smad7 expression (quantitative RT-PCR): 1.86 ± 0.19
Smad7; 500 nM
  Smad7 expression (quantitative RT-PCR): 3.06 ± 0.28
Aggrecan
  induction of Aggrecan (Western blot): clear induction
TGF-β2; 50 nM
  TGF-β2 expression (quantitative RT-PCR): 1.36 ± 0.13
TGF-β2; 200 nM
  TGF-β2 expression (quantitative RT-PCR): 1.61 ± 0.11
TGF-β2; 500 nM
  TGF-β2 expression (quantitative RT-PCR): 1.88 ± 0.09
MMP-9; 50 nM
  MMP-9 expression (quantitative RT-PCR): 0.49 ± 0.09
MMP-9; 200 nM
  MMP-9 expression (quantitative RT-PCR): 0.22 ± 0.03
MMP-9; 200 nM, RT-PCR
  inhibition of the expression of MMP-9: ~80%
MMP-9; 500 nM
  MMP-9 expression (quantitative RT-PCR): 0.19 ± 0.06
Col II alpha1; 50 nM
  Col II alpha1 expression (quantitative RT-PCR): 4.12 ± 1.78
Col II alpha1; 200 nM
  Col II alpha1 expression (quantitative RT-PCR): 5.45 ± 1.13
Col II alpha1; 500 nM
  Col II alpha1 expression (quantitative RT-PCR): 3.18 ± 0.71
TIMP-2; 50 nM
  TIMP-2 expression (quantitative RT-PCR): 1.78 ± 0.18
TIMP-2; 200 nM
  TIMP-2 expression (quantitative RT-PCR): 2.44 ± 0.31
TIMP-2; 500 nM
  TIMP-2 expression (quantitative RT-PCR): 4.09 ± 0.36
Smad6; 50 nM
  Smad6 expression (quantitative RT-PCR): 1.09 ± 0.04
Smad6; 200 nM
  Smad6 expression (quantitative RT-PCR): 1.77 ± 0.24
Smad6; 500 nM
  Smad6 expression (quantitative RT-PCR): 2.85 ± 0.31
Smad3; 50 nM
  Smad3 expression (quantitative RT-PCR): 1.14 ± 0.12
Smad3; 200 nM
  Smad3 expression (quantitative RT-PCR): 1.35 ± 0.07
Smad3; 500 nM
  Smad3 expression (quantitative RT-PCR): 1.93 ± 0.16
Newborn mouse calvaria
  induction of chondrogenesis (metachromatic toluidine blue purple staining, proteoglycans): marked ability to induce chondrogenesis
BMP-4; 50 nM
  BMP-4 expression (quantitative RT-PCR): 1.28 ± 0.12
BMP-4; 200 nM
  BMP-4 expression (quantitative RT-PCR): 1.47 ± 0.13
BMP-4; 500 nM
  BMP-4 expression (quantitative RT-PCR): 2.49 ± 0.35
Smad4; 50 nM
  Smad4 expression (quantitative RT-PCR): 1.06 ± 0.03
Smad4; 200 nM
  Smad4 expression (quantitative RT-PCR): 1.37 ± 0.12
Smad4; 500 nM
  Smad4 expression (quantitative RT-PCR): 1.89 ± 0.12
BMP-2; 50 nM
  BMP-2 expression (quantitative RT-PCR): 1.53 ± 0.20
BMP-2; 200 nM
  BMP-2 expression (quantitative RT-PCR): 2.52 ± 0.29
BMP-2; 500 nM
  BMP-2 expression (quantitative RT-PCR): 5.66 ± 0.67
BMPRII; 50 nM
  BMPRII expression (quantitative RT-PCR): 1.50 ± 0.14
BMPRII; 200 nM
  BMPRII expression (quantitative RT-PCR): 1.71 ± 0.19
BMPRII; 500 nM
  BMPRII expression (quantitative RT-PCR): 2.24 ± 0.22
[1]
  formation of collagen type II (COL2A1), red fluorescence: induce the formation of collagen type II
SOX9
  induction of SOX9 (Western blot): clear induction
TGF-β1; 50 nM
  TGF-β1 expression (quantitative RT-PCR): 1.17 ± 0.09
TGF-β1; 200 nM
  TGF-β1 expression (quantitative RT-PCR): 1.47 ± 0.24
TGF-β1; 500 nM
  TGF-β1 expression (quantitative RT-PCR): 1.74 ± 0.17
COL2A1
  induction of COL2A1 (Western blot): clear induction
TIMP-1; 50 nM
  TIMP-1 expression (quantitative RT-PCR): 1.88 ± 0.34
TIMP-1; 200 nM
  TIMP-1 expression (quantitative RT-PCR): 2.85 ± 0.38
TIMP-1; 500 nM
  TIMP-1 expression (quantitative RT-PCR): 4.65 ± 0.38
